According to article PMC5335602, “Protein-ligand binding affinity determination by the waterLOGSY method: An optimised approach considering ligand rebinding” (Scientific Reports, 2017):

Assays:
Assay type in all cases: binding
[1] = target: T1, human serum albumin (HSA) (Homo sapiens, UniProt P02768); assay: waterLOGSY NMR titration ([…] HSA, […] s mixing time); settings: read-out: KD^obs/μM / 25 μM HSA
T1 construct: gene ALB

[2] = target: T2, bovine serum albumin (BSA) (Bos taurus, UniProt P02769); assay: waterLOGSY NMR titration ([…] BSA)
T2 construct: gene ALB
T2 sequence (P02769 25-607): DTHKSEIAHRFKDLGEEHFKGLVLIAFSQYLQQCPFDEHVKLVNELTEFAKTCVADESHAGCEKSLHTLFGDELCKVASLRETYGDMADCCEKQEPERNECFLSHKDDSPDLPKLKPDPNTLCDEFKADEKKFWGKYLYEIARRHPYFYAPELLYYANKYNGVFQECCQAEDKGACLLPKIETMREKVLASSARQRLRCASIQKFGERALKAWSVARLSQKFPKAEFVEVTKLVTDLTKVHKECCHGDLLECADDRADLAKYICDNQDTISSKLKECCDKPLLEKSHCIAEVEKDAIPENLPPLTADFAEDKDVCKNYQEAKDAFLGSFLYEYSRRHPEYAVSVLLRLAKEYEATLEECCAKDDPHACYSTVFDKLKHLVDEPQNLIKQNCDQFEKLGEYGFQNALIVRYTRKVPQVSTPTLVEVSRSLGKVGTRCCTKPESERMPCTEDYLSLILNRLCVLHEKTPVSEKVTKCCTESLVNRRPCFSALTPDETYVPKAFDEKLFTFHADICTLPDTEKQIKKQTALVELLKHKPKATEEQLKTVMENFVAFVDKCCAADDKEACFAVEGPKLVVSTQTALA

[3] = target: T3, α-chymotrypsin (Bos taurus, UniProt P00766); assay: […] NMR chemical shift titration; waterLOGSY titration
T3 construct: from bovine pancreas, Type II

T1 sequence (P02768 25-609): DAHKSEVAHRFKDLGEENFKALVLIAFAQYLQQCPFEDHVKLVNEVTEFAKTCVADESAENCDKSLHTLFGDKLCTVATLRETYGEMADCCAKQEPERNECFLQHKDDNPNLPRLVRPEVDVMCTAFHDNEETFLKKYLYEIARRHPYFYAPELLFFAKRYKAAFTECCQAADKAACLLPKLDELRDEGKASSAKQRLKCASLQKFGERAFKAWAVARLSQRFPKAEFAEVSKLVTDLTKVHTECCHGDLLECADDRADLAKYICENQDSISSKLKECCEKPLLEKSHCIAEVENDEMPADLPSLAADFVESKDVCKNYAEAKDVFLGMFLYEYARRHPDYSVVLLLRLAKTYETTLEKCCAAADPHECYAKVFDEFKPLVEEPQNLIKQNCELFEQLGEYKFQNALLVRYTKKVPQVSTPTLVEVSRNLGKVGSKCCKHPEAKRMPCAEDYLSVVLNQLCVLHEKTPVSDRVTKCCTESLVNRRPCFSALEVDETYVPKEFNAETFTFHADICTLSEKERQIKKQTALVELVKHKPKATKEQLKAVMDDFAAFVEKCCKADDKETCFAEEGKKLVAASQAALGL

| SMILES | Kd [1] [µM] | Kd [2] [µM] | Kd [3] [µM] |
| --- | --- | --- | --- |
| N[C@@H](Cc1c[nH]c2ccccc12)C(=O)O [L-tryptophan] | 185 ± 50 | ~120 | – |
| OB(O)c1cccc(F)c1 [3-Fluorophenylboronic acid] | – | – | 630 |
